{"source": "a melting point compilation (Tetko et al.; mined from patent text by program, amines drawn as free bases though some values may be those of a salt)", "data": [{"units": {"melting point": "°C"}, "values": [{"smiles": "CCc1ccc(COc2ccc(CC(NC(=O)c3cn4ccc(-c5ccc(Cl)cc5)cc4n3)C(=O)O)cc2)cc1", "note": "(configuration not stated)", "melting point": 245}, {"smiles": "C(=C\\c1nc2ccccc2n1-c1ccncc1)/c1ccccc1", "melting point": "168 to 169"}, {"smiles": "COc1ccc(CN2C(=O)[C@H](CO)[C@H]2S(=O)(=O)C(C)(C)C)c(OC)c1", "melting point": "124 to 125"}, {"smiles": "Cc1ccc2ccccc2c1Cn1ccnc1", "melting point": "98 to 98.5"}, {"smiles": "Fc1cccc(OC2CN(C3CCC(c4c[nH]c5ccccc45)CC3)C2)c1", "note": "(configuration not stated)", "melting point": "114 to 117"}, {"smiles": "NS(=O)c1ncnc2c1ncn2C1OC(CO)C(O)C1O", "note": "(configuration not stated)", "melting point": "> 120"}, {"smiles": "CS(=O)(=O)Nc1ccc(N2CCC(O)CC2)cc1", "melting point": "126 to 129"}, {"smiles": "Cn1ncnc1COc1nn2c(-c3ccco3)nncc2c1-c1ccccc1F", "melting point": "204 to 206"}, {"smiles": "CCCCCCCCCC[C@H](NP(=O)(c1ccccc1)c1ccccc1)c1ccccc1", "melting point": "95 to 96"}, {"smiles": "CCCCC/C(=C\\C=C\\C(=O)O)c1ccc(F)cc1", "melting point": "116 to 118"}, {"smiles": "COC(=O)C(C)c1ccc2c(=O)c3ccccc3ccc2c1", "note": "(configuration not stated)", "melting point": "37 to 39"}, {"smiles": "CCOC(=O)c1cn(-c2nc(NCc3ccc(OC)cc3)c(F)cc2F)c2c(F)c(F)c(F)c(F)c2c1=O", "melting point": "203 to 208"}, {"smiles": "COc1cc2cc(C3=CCN(C)CC3)oc2cc1OC", "melting point": "73 to 75"}, {"smiles": "CCNC(=O)c1nc(Cl)c(Cl)[nH]1", "melting point": 146}, {"smiles": "CCOC(C)Oc1ccc2c(c1C=O)OCO2", "note": "(configuration not stated)", "melting point": "48 to 50"}, {"smiles": "O=C1NC(CO)(CO)CO1", "melting point": "107 to 108"}, {"smiles": "Cc1ccccc1C(=O)Nc1ccc(-n2nc(C(F)(F)F)cc2C(F)(F)F)cc1", "melting point": "165 to 167"}, {"smiles": "CC(CC(=O)O)n1nnnc1S", "note": "(configuration not stated)", "melting point": "169 to 172"}, {"smiles": "CC(=O)Nc1nc(C(Cl)(Cl)Cl)ns1", "melting point": 193}, {"smiles": "O=C(C=Cc1c(Cl)cccc1Cl)N1CCc2c([nH]c3ccccc23)C1c1ccc2c(c1)OCO2", "note": "(configuration not stated)", "melting point": "118 to 120"}, {"smiles": "COC(=O)c1ccc(NCc2cc(S(C)(=O)=O)ccc2OCc2ccccc2)cc1", "melting point": 124}, {"smiles": "Cc1ccsc1-c1nc2cc([N+](=O)[O-])ccc2o1", "melting point": "174 to 176"}, {"smiles": "COc1ccc(CNc2nc(-c3ccccc3)c(-c3ccc(=O)n(C)n3)nc2C#N)cc1", "melting point": "166 to 168"}, {"smiles": "COc1ccc(C2CCc3cc(CC(=O)O)cc(Cl)c3N2)cc1", "note": "(configuration not stated)", "melting point": "140 to 141"}, {"smiles": "Cc1ccc(S(=O)(=O)N(C)c2ccc(Cl)cc2S(C)=O)cc1", "note": "(configuration not stated)", "melting point": "142 to 144"}, {"smiles": "Cc1cc(OC(=O)c2ccccc2)cc(C)c1O", "melting point": "140 to 141"}, {"smiles": "CC(C)(C)OC(=O)CC1CCC(=O)Nc2ccccc21", "note": "(configuration not stated)", "melting point": "101 to 103"}, {"smiles": "CCCCC1C(C(=O)OCC)C(O)(C(F)(F)F)NC(O)(C(F)(F)F)C1C(=O)OCC", "note": "(configuration not stated)", "melting point": "77 to 80"}, {"smiles": "Cc1ccc2nc(-c3ccc4nc(N)sc4c3)sc2c1", "melting point": "250 to 251"}, {"smiles": "O=[N+]([O-])c1ccc(Oc2ccc(O)cc2)cc1", "melting point": "173 to 174"}, {"smiles": "Cc1ccc(OCc2ccccc2)c(C(=O)O)c1", "melting point": "98 to 100"}, {"smiles": "CN(Cc1ccccc1)Cc1c(-c2ccc(N)cc2)sc2c1c(=O)c(C(=O)c1ccccc1)cn2Cc1c(F)cccc1F", "melting point": "126 to 128"}, {"smiles": "CC(C)(C)c1cc(-c2nc(CC(=O)O)co2)cc(C(C)(C)C)c1O", "melting point": "166 to 168"}, {"smiles": "CCOc1cc(OC)c2cc(C(=O)CN=[N+]=[N-])ccc2n1", "melting point": "129 to 132"}, {"smiles": "CCc1c(Nc2cc(C)cc(C)c2)nc(OC)nc1OC", "melting point": "113 to 114"}, {"smiles": "O=C1OCCC1C(=O)c1ccccc1[N+](=O)[O-]", "note": "(configuration not stated)", "melting point": "75 to 76"}, {"smiles": "C#Cc1ccc(=O)oc1", "melting point": "99 to 100"}, {"smiles": "CP(=O)(O)C[C@@H](O)CN", "melting point": "221 to 222"}, {"smiles": "Cc1[nH]c(=O)c(-c2csc(-c3ccnc(NCCNC(C)C)c3)n2)cc1C(=O)NCCNC(C)C", "melting point": "> 260"}, {"smiles": "CCOC(=O)COc1cc2c(C)csc2c(Cl)c1Cl", "melting point": "115 to 117"}, {"smiles": "OC1CCCc2nc3sccc3c(NCc3ccccc3)c21", "note": "(configuration not stated)", "melting point": "180 to 181"}, {"smiles": "OCCc1nccn1CCCCc1ccc(OCc2coc(/C=C/c3ccc(F)cc3)n2)cc1", "melting point": "130 to 132"}]}]}
